Results reported in patent US20250236616A1, “IMMUNOMODULATING AZALIDES” (Zoetis Services LLC, priority 2021, published 2025).
Like-named read-outs stand apart in the source and are kept apart here. Marks after values point to notes of the source that are not given here.

Legend:
Format in all cases: cell-based
TNF-α = test: Whole bovine blood assay, LPS-induced TNF-α; conditions: fresh whole bovine blood, LPS stimulant, top drug concentration 250 μM
Summary of the method: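 Fresh heparinized bovine whole blood was preincubated with compound 4 h at 37 °C, then stimulated with LPS (final 1 μg/mL) for 18 h at 37 °C. Plasma TNF-α was quantified by MSD U-Plex chemiluminescent immunoassay, normalized to total protein (BCA), and IC50 taken for LPS-induced TNF-α inhibition.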

IL-6 = test: Whole bovine blood assay, LPS-induced IL-6; conditions: fresh whole bovine blood, LPS stimulant, top drug concentration 250 μM
[1] = test system: BRD pathogens, M. haemolytica and P. multocida; test: MIC screening panel, BRD pathogens (CLSI broth micro-dilution)
Text: Primary screening of the compounds of the invention included the evaluation of antibacterial activity of analogs through determination of microbial inhibition concentration (MIC) as per CLSI guidelines. The screening panel included the relevant BRD pathogens: 1) M. haemolytica (e.g., 12726, 46571 and 49023, all AHDRCC; and 33396 (ATCC)); and 2) P. multocida (e.g., 34135 and 46572 (both AHDRCC) and 43137 (ATCC)). In some instances, H. somni (A700025K) pathogens were also included in the screening panel. The AHDRCC strains originated from the Zoetis BRD/SRD surveillance program and refer to the Animal Health Development and Research Culture Collection. In addition, the screen assessed S. aureus (29213 ATCC) as a representative Gram-positive isolate, E.faecalis (19433 ATCC) as a commensal gram-positive gastrointestinal bacterium and E. coli (100, 3110 and 25922 (ATCC)) for the evaluation of efflux potential. The screening panel BRD pathogens were assessed in determining antibacterial activity of the Formula (1) compounds.
All relevant BRD pathogens were initially screened at a top concentration of 64 μg/mL of a Formula (1) compound in an eleven-point dilution series. […] If an Example was purified further, the MICs moved […] essentially two dilutions across all strains tested in the screening panel.
In-Vitro MIC Model Compounds were analyzed for antibacterial activity against a panel of animal health specific gram-positive and gram-negative clinical strains by diluting compounds in DMSO to an appropriate stock concentration to determine the Minimal Inhibitory Concentration (MIC) via a semi-automated broth micro-dilution method (CLSI reference method) with QC strains and anti-microbial agent(s). Specifically, bacteria were grown overnight on TSA w/5% sheep blood agar plates and diluted in saline buffer to a McFarland Standard 0.5, then further diluted in cation-ion adjusted Mueller Hinton Broth to a final concentration of approximately 5×10^5 CFU/mL. 100 μL of inoculated media was added to 96-well plate(s) with 3 μL of serially diluted compound in each row. Depending on strain (see CLSI reference method), bacteria were incubated 18-22 hours at 35-37° C. in ambient air, with 5% CO2 or anaerobically (up to 48 hours).

[2] = Table C, at least one BRD pathogenic strain, top concentration 64 μg/mL
[3] = Table B, at least one BRD pathogenic strain, top concentration 64 μg/mL, read-out: MIC flag (*) for BRD pathogenic strains
[4] = Table B, at least one BRD pathogenic strain, top concentration 64 μg/mL

Which IC50 (TNF-α) does the source give for “(2R,3S,4R,5R,8R,10R,11R,12S, 13S, 14R)-2-ethyl-3,4, 10-trihydroxy-13-[(2R,4R,5S,6S)-5-hydroxy-4-methoxy-4,6-dimethyl-5-(piperidin-1-ylmethyl) oxan-2-yl]oxy-11-[(2R,3S,4R,6S)-3-hydroxy-4-[(4-methoxyphenyl) sulfamoyl-methylamino]-6-methyloxan-2-yl]oxy-3,5,8,10, 12,14-hexamethyl-15-oxo-1-oxa-6-azacyclopentadecane [Example C-27]” here?
The IC50 was 73 µM.

And the IC50 (IL-6)?
The IC50 was 72 µM.

And the “MIC flag (*) for BRD pathogenic strains” value [1, 2]?
Its value is “C-27* (MIC ≤64 μg/mL for at least one BRD pathogenic strain)”.

CCCNC[C@]1(O)[C@H](C)OC(O[C@H]2[C@H](C)[C@@H](O[C@@H]3O[C@H](C)C[C@H](N(C)S(=O)(=O)c4ccc(-c5cnco5)s4)[C@H]3Oc3ccc(OC)cc3)[C@](C)(O)C[C@@H](C)CN[C@H](C)[C@@H](O)[C@](C)(O)[C@@H](CC)OC(=O)[C@@H]2C)C[C@@]1(C)OC (stereo partly drawn) [Example B-120, N-[(2S,3R,4S,6R)-2-[[(2R,3S,4R,5R,8R,10R,11R,12S,13S, 14R)-2-ethyl-3,4,10-trihydroxy-13-[(4R,5S,6S)-5-hydroxy-4-methoxy-4,6-dimethyl-5-(propylaminomethyl)oxan-2-yl]oxy-3,5,8, 10, 12, 14-hexamethyl-15-oxo-1-oxa-6-azacyclopentadec-11-yl]oxy]-3-(4-methoxyphenoxy)-6-methyloxan-4-yl]-N-methyl-5-(1,3-oxazol-5-yl)thiophene-2-sulfonamide] was tested. Which IC50 (IL-6; Bos taurus) did it give?
The IC50 was 6 µM.

And the MIC [1, 3]?
Its MIC is ≤ 64 µg/mL.

CC[C@H]1OC(=O)[C@H](C)[C@@H](O[C@H]2C[C@@](C)(OC)[C@](O)(CNC3CC3)[C@H](C)O2)[C@H](C)[C@@H](O[C@@H]2O[C@H](C)C[C@H](N(C)S(=O)(=O)c3ccc(Cl)cc3)[C@H]2O)[C@](C)(O)C[C@@H](C)CN[C@H](C)[C@@H](O)[C@]1(C)O [Example B-23, 4-chloro-N-((2S,3R,4S,6R)-2-(((2R,3S,4R,5R,8R,10R,11R,12S,13S, 14R)-13-(((2R,4R,5S,6S)-5-((cyclopropylamino)methyl)-5-hydroxy-4-methoxy-4,6-dimethyltetrahydro-2H-pyran-2-yl)oxy)-2-ethyl-3,4, 10-trihydroxy-3,5,8, 10, 12,14-hexamethyl-15-oxo-1-oxa-6-azacyclopentadecan-11-yl)oxy)-3-hydroxy-6-methyltetrahydro-2H-pyran-4-yl)-N-methylbenzenesulfonamide] was tested. Which IC50 (TNF-α; Bos taurus) did it give?
The IC50 was 3 µM.

And the IC50 (IL-6; Bos taurus)?
Its IC50 is 13 µM.

And the MIC [1, 3]?
The MIC was ≤ 64 µg/mL.

Which results are given for CC[C@H]1OC(=O)[C@H](C)[C@@H](O[C@H]2C[C@@](C)(OC)[C@](O)(CNCCc3ccc(C(F)(F)F)cc3)[C@H](C)O2)[C@H](C)[C@@H](O[C@@H]2O[C@H](C)C[C@H](N(C)S(=O)(=O)c3ccc(Cl)cc3)[C@H]2O)[C@](C)(O)C[C@@H](C)CN[C@H](C)[C@@H](O)[C@]1(C)O [Example B-31, 4-chloro-N-((2S,3R,4S,6R)-2-(((2R,3S,4R,5R,8R,10R,11R, 12S, 13S, 14R)-2-ethyl-3,4,10-trihydroxy-13-(((2R,4R,5S,6S)-5-hydroxy-4-methoxy-4,6-dimethyl-5-(((4-(trifluoromethyl)phenethyl)amino)methyl)tetrahydro-2H-pyran-2-yl)oxy)-3,5,8,10, 12,14-hexamethyl-15-oxo-1-oxa-6-azacyclopentadecan-11-yl)oxy)-3-hydroxy-6-methyltetrahydro-2H-pyran-4-yl)-N-methylbenzenesulfonamide]?
IC50 (TNF-α; Bos taurus): 4 µM; IC50 (IL-6; Bos taurus): 7 µM; MIC [1, 3]: ≤ 64 µg/mL

What does the source list for CC[C@H]1OC(=O)[C@H](C)[C@@H](O[C@H]2C[C@@](C)(OC)[C@](O)(CNCCc3ccc(C(F)(F)F)cc3)[C@H](C)O2)[C@H](C)[C@@H](O[C@@H]2O[C@H](C)C[C@H](N(C)S(=O)(=O)Nc3ccc(C(F)(F)F)cc3)[C@H]2O)[C@](C)(O)C[C@@H](C)CN[C@H](C)[C@@H](O)[C@]1(C)O [Example B-79]?
IC50 (TNF-α): 7 µM; IC50 (IL-6): 7 µM; MIC flag (*) for BRD pathogenic strains [1, 4]: B79* (MIC ≤64 μg/mL for at least one BRD pathogenic strain)

For “(2R,3S,4R,5R,8R,10R,11R, 12S, 13S, 14R)-2-ethyl-3,4, 10-trihydroxy-13-[(2R,4R,5S,6S)-5-hydroxy-4-methoxy-4,6-dimethyl-5-(piperidin-1-ylmethyl) oxan-2-yl]oxy-11-[(2R,3S,4R,6S)-3-hydroxy-6-methyl-4-[methyl-[(3-methylphenyl) sulfamoyl]-amino]oxan-2-yl]oxy-3,5,8, 10, 12,14-hexamethyl-15-oxo-1-oxa-6-azacyclopentadecane [Example C-26]”, which IC50 (TNF-α) is on record?
The IC50 was 16 µM.

What about the IC50 (IL-6) of the same compound?
The IC50 was 25 µM.

What about the “MIC flag (*) for BRD pathogenic strains” value [1, 2] of the same compound?
Its value is “C-26* (MIC ≤64 μg/mL for at least one BRD pathogenic strain)”.

CCCNC[C@]1(O)[C@H](C)O[C@@H](O[C@H]2[C@H](C)[C@@H](O[C@@H]3O[C@H](C)C[C@H](N(C)S(=O)(=O)c4ccc([N+](=O)[O-])cc4)[C@H]3O)[C@](C)(O)C[C@@H](C)CN[C@H](C)[C@@H](O)[C@](C)(O)[C@@H](CC)OC(=O)[C@@H]2C)C[C@@]1(C)OC [Example B-2, N-((2S,3R,4S,6R)-2-(((2R,3S,4R,5R,8R,10R,11R,12S,13S,14R)-2-ethyl-3,4,10-trihydroxy-13-(((2R,4R,5S,6S)-5-hydroxy-4-methoxy-4,6-dimethyl-5-((propylamino)methyl)tetrahydro-2H-pyran-2-yl)oxy)-3,5,8,10, 12,14-hexamethyl-15-oxo-1-oxa-6-azacyclopentadecan-11-yl)oxy)-3-hydroxy-6-methyltetrahydro-2H-pyran-4-yl)-N-methyl-4-nitrobenzenesulfonamide] was tested. Which IC50 (TNF-α; Bos taurus) did it give?
The IC50 was 37 µM.

What about the IC50 (IL-6; Bos taurus) of the same compound?
Its IC50 is 46 µM.

And the MIC [1, 3]?
Its MIC is ≤ 64 µg/mL.

CC[C@H]1OC(=O)[C@H](C)[C@@H](O[C@H]2C[C@@](C)(OC)[C@](O)(CSc3ccccc3)[C@H](C)O2)[C@H](C)[C@@H](O[C@@H]2O[C@H](C)C[C@H](N(C)S(=O)(=O)c3ccc(Cl)cc3)[C@H]2O)[C@](C)(O)C[C@@H](C)CN[C@H](C)[C@@H](O)[C@]1(C)O [Example A3-1, 4-chloro-N-((2S,3R,4S,6R)-2-(((2R,3S,4R,5R,8R,10R,11R,12S,13S,14R)-2-ethyl-3,4, 10-trihydroxy-13-(((2R,4R,5S,6S)-5-hydroxy-4-methoxy-4,6-dimethyl-5-((phenylthio)methyl)tetrahydro-2H-pyran-2-yl)oxy)-3,5,8, 10, 12, 14-hexamethyl-15-oxo-1-oxa-6-azacyclopentadecan-11-yl)oxy)-3-hydroxy-6-methyltetrahydro-2H-pyran-4-yl)-N-methylbenzenesulfonamide] was tested. Which IC50 (TNF-α; Bos taurus) did it give?
The IC50 was 27 µM.

And the IC50 (IL-6; Bos taurus)?
Its IC50 is 31 µM.

What about the MIC ([1]; BRD pathogens M. haemolytica and P. multocida, read-out: antibacterial / non-antibacterial (MIC class)) of the same compound?
The MIC was > 64 µg/mL.

“N-((2S,3R,4S,6R)-2-(((2R,3S,4R,5R,8R,10R,11R,12S,13S,14R)-2-ethyl-3,4,10-trihydroxy-13-(((2R,4R,5S,6S)-5-hydroxy-4-methoxy-4,6-dimethyl-5-((propylamino)methyl)tetrahydro-2H-pyran-2-yl)oxy)-3,5,6,8,10,12,14-heptamethyl-15-oxo-1-oxa-6-azacyclopentadecan-11-yl)oxy)-3-(4-fluorophenoxy)-6-methyltetrahydro-2H-pyran-4-yl)-N, 1-dimethyl-1H-imidazole-2-sulfonamide [Example B-162]” was tested. Which IC50 (TNF-α) did it give?
Its IC50 is 8 µM.

And the IC50 (IL-6)?
The IC50 was 9 µM.

And the “MIC flag (*) for BRD pathogenic strains” value [1, 4]?
The value was “B-162* (MIC ≤64 μg/mL for at least one BRD pathogenic strain)”.
